ChEMBL document CHEMBL3297723, “Ethyl 1,8-naphthyridone-3-carboxylates downregulate human papillomavirus-16 E6 and E7 oncogene expression” (J Med Chem, 2014)
Calls of active or inactive are those of the source. The calls are words filed in the database; no cut-off is given here.

What was measured:
P21 [1] = test: Inhibition of HPV-16 LCR transcriptional activity in human P21 cells at 30 uM after 24 hrs by luciferase reporter gene assay; assay type: cell-based; settings: Alphapapillomavirus 9
P21 [2] = test: Inhibition of HPV-16 LCR transcriptional activity in human P21 cells at 100 uM after 24 hrs by luciferase reporter gene assay; assay type: cell-based; settings: Alphapapillomavirus 9
[3] = Cytotoxicity against human CaSki cells assessed as inhibition of cell proliferation at 10 uM after 24 hrs by CellTiter96 assay; assay type: cell-based; settings: ca-ski
[4] = Drug uptake in human CaSki cells at 10 uM after 16 hrs by reverse-phase HPLC analysis; assay type: ADME, cell-based; settings: ca-ski
[5] = (§1) Inhibition of HPV-16 LCR transcriptional activity in human P21 cells after 24 hrs by luciferase reporter gene assay; assay type: cell-based; settings: Alphapapillomavirus 9, P21, 24 h
[6] = Selectivity index, ratio of CC50 for human P21 cells to IC50 for HPV-16 LCR transcriptional activity in human P21 cells; assay type: functional
[7] = Cytotoxicity against human P21 cells assessed as inhibition of cell viability after 24 hrs by CellTiter96 assay; assay type: cell-based
[8] = Drug uptake in human CaSki cells at 10 uM after 1 hr by reverse-phase HPLC analysis; assay type: ADME, cell-based; settings: ca-ski
Ca-Ski [9] = test: Inhibition of LCR-mediated E6 mRNA expression in HPV-16-positive human CaSki cells at 10 uM after 24 hrs by RT-PCR analysis; assay type: cell-based; settings: Alphapapillomavirus 9
Ca-Ski [10] = test: Inhibition of LCR-mediated E7 mRNA expression in HPV-16-positive human CaSki cells at 10 uM after 24 hrs by RT-PCR analysis; assay type: cell-based; settings: Alphapapillomavirus 9
P21 [11] = test: as §1; assay type: cell-based; settings: Alphapapillomavirus 9
[12] = test system: Human immunodeficiency virus 1; test: Antiviral activity against HIV-1 3B infected in human MT4 cells assessed as protection against virus-induced cytopathogenicity; assay type: functional, organism-based
Rotavirus = test: Antiviral activity against HRV infected in […] cells assessed as protection against virus-induced cytopathogenicity; assay type: functional, organism-based
Human alphaherpesvirus 2 = test: Antiviral activity against HSV2 infected in african green monkey Vero cells assessed as protection against virus-induced cytopathogenicity; assay type: functional, organism-based
[13] = test system: Vesicular stomatitis virus; test: Antiviral activity against VSV infected in african green monkey Vero cells assessed as protection against virus-induced cytopathogenicity; assay type: functional, organism-based
Human orthopneumovirus = test: Antiviral activity against RSV infected in human Hep2 cells assessed as protection against virus-induced cytopathogenicity; assay type: functional, organism-based; settings: human respiratory syncytial virus; HEp-2

SMILES | inhibition (P21 [1]) [%] | inhibition (P21 [2]) [%] | Activity [3] | Drug uptake [4] [%] | IC50 [5] [µM] | Ratio CC50/IC50 [6] | CC50 at 24 h [7] [µM] | Drug uptake [8] | inhibition (Ca-Ski [9]) [%] | inhibition (Ca-Ski [10]) [%] | inhibition (P21 [11]) | Activity [12] | Activity (Rotavirus) | Activity (Human alphaherpesvirus 2) | Activity [13] | Activity (Human orthopneumovirus)
CCOC(=O)c1cn(CCc2ccc(Cl)cc2)c2nc(N3CCN(c4nc5ccccc5s4)CC3)ccc2c1=O | 49.6 | 50.4 |  |  |  |  |  |  |  |  |  |  |  |  |  | 
O=C(O)c1cn(Cc2cccc(Cl)c2F)c2nc(N3CCN(c4ccc5ccccc5n4)CC3)ccc2c1=O | 99.3 | 100 | Non-toxic | 38 | 2.86 | 6.1 | 17.6 | 20% |  |  |  |  |  |  |  | 
CCOC(=O)c1cn(Cc2ccccc2)c2nc(N3CCN(c4nc5ccccc5s4)CC3)ccc2c1=O | 98.2 | 98.1 | Non-toxic |  | 0.23 | 268 | 61.7 |  |  |  |  |  |  |  |  | 
CCOC(=O)c1cn(Cc2ccccn2)c2nc(N3CCN(c4nc5ccccc5s4)CC3)ccc2c1=O | 63.1 | 73.4 |  |  | 5.3 | 6.5 | 34.6 |  |  |  |  |  |  |  |  | 
O=C(O)c1cn(Cc2ccccn2)c2nc(N3CCN(c4nc5ccccc5s4)CC3)ccc2c1=O | 24 | 61 |  |  |  |  |  |  |  |  |  |  |  |  |  | 
O=C(O)c1cn(Cc2cccc(Cl)c2F)c2nc(N3CCN(c4nccs4)CC3)ccc2c1=O | 7.39 | 2.1 | Non-toxic | 63 |  |  |  | 20% |  |  |  |  |  |  |  | 
O=C(O)c1cn(Cc2ccccc2)c2nc(N3CCN(c4nc5ccccc5s4)CC3)ccc2c1=O | 100 | 100 | Non-toxic |  | 4.55 | 15.2 | 69.6 |  |  |  |  |  |  |  |  | 
CCOC(=O)c1cn(CCc2ccccn2)c2nc(N3CCN(c4nc5ccccc5s4)CC3)ccc2c1=O | 87 | 100 |  |  | 1.05 | 16.2 | 17.1 |  |  |  |  |  |  |  |  | 
CCOC(=O)c1cn(Cc2ccc3[nH]ccc3c2)c2nc(N3CCN(c4nc5ccccc5s4)CC3)ccc2c1=O | 93.6 | 90.2 | Non-toxic |  | 0.13 | >769 | > 100 |  |  |  |  |  |  |  |  | 
CCOC(=O)c1cn(Cc2cccc(Cl)c2F)c2nc(N3CCN(c4ccc5ccccc5n4)CC3)ccc2c1=O | 92.3 | 93.7 | Non-toxic | 40 | 0.21 | 282 | 59.3 | Not Active | 61.5 | 57.4 |  |  |  |  |  | 
CCOC(=O)c1cn(Cc2nc3ccccc3[nH]2)c2nc(N3CCN(c4nc5ccccc5s4)CC3)ccc2c1=O | 38.3 | 45.5 |  |  |  |  |  |  |  |  |  |  |  |  |  | 
O=C(O)c1cn(Cc2cccc(Cl)c2F)c2nc(N3CCN(c4ccccn4)CC3)ccc2c1=O | 30.5 | 25.8 | Non-toxic |  |  |  |  |  |  |  |  |  |  |  |  | 
CCOC(=O)c1cn(Cc2cccc(Cl)c2F)c2nc(N3CCN(c4ccccn4)CC3)ccc2c1=O | 89.2 | 93.1 | Non-toxic |  | 1.12 | >89.2 | > 100 |  |  |  | Dose-dependent effect |  |  |  |  | 
CCOC(=O)c1cn(Cc2cccc(Cl)c2)c2nc(N3CCN(c4nc5ccccc5s4)CC3)ccc2c1=O | 96 | 96 | Non-toxic |  | 2.62 | >38.1 | > 100 |  |  |  |  |  |  |  |  | 
CCOC(=O)c1cn(Cc2ccc(Cl)cc2)c2nc(N3CCN(c4nc5ccccc5s4)CC3)ccc2c1=O | 90 | 90 | Non-toxic |  | 2.37 | >42.1 | > 100 |  |  |  |  |  |  |  |  | 
CCOC(=O)c1cn(Cc2ccc(C(F)(F)F)cc2)c2nc(N3CCN(c4nc5ccccc5s4)CC3)ccc2c1=O | 67.5 | 89.3 |  |  | 10.9 | 7.16 | 78.2 |  |  |  |  |  |  |  |  | 
CCOC(=O)c1cn(Cc2cccc(Cl)c2F)c2nc(N3CCN(c4nc5ccccc5o4)CC3)ccc2c1=O | 88.1 | 83.9 |  |  | 0.39 | >256 | > 100 |  |  |  |  |  |  |  |  | 
O=C(O)c1cn(CCc2ccccn2)c2nc(N3CCN(c4nc5ccccc5s4)CC3)ccc2c1=O | 0 | 0 |  |  |  |  |  |  |  |  |  |  |  |  |  | 
CCOC(=O)c1cn(Cc2cccc(Cl)c2F)c2nc(N3CCN(c4nccs4)CC3)ccc2c1=O | 98 | 99.7 | Non-toxic | 70 | 1.21 | 20.9 | 25.3 | Not Active | 71.7 | 72.7 |  |  |  |  |  | 
O=C(O)c1cn(Cc2cccc(Cl)c2F)c2nc(N3CCN(c4nc5ccccc5s4)CC3)ccc2c1=O | 38.3 | 56 | Non-toxic | 35 |  |  |  | 20% |  |  |  |  |  |  |  | 
CCOC(=O)c1cn(Cc2cccc(Cl)c2F)c2nc(N3CCN(c4nc5ccccc5s4)CC3)ccc2c1=O | 82.8 | 94.9 | Non-toxic | 15 | 0.26 | >385 | > 100 | Not Active |  |  |  | inactive | inactive | Active | Active | Active
CCOC(=O)c1cn(Cc2ccccc2F)c2nc(N3CCN(c4nc5ccccc5s4)CC3)ccc2c1=O | 88.6 | 75.6 |  |  | 4.18 | >23.9 | > 100 |  |  |  |  |  |  |  |  | 
